Assay results as given in patent publication US20250090626A1, “NEW PEPTIDE AND USES THEREOF” (Neo Cremar Co., Ltd., priority 2021, published 2025).

How the values were obtained:
Format in all cases: cell-based, mouse
C2C12 cells [1] = experiment: Myodifferentiation, Giemsa staining, root canal formation and fusion index
Method: When C2C12 cells were 70% grown, media were replaced with myodifferentiation medium added with MSTN protein (1 ng), Ac-MIF1 (1000 nM), and Ac-MIF1 (1000 nM)+MSTN protein (1 ng) from proliferation medium, followed by culture for 3 days.
When the cells grew more than 70% for differentiation of myoblasts into myocytes, they were cultured for 3 days by replacing with a differentiation medium (DMEM+2% FBS+1% P/S). The medium was replaced once daily, and the cells were cultured at 37° C.
The cell medium was removed, and the cells were washed with PBS. After washing, a methanol:PBS reagent in a 1:1 volume ratio was treated, followed by fixation for 2 minutes. Additionally, after a methanol:PBS reagent in a 2:1 volume ratio was added, fixation was followed for additional 2 minutes. After 2 minutes, 0.04% Giemsa reagent was added, and then the cells were left for 30 minutes, washed with PBS after 30 minutes, and observed under a microscope, with 3 photographs taken for each cell (300×). In the photographs taken, the number of fused nuclei in the root canal cells was counted, the number of nuclei of total cells was counted, and the number of fused nuclei was divided by the number of nuclei of the total cells to obtain the % value.

C2C12 cells [2] = experiment: C2C12 cell proliferation (MTT method)
Method: C2C12 cells, a mouse myoblast line, were cultured in Dulbecco's Modified Eagle's Medium (DMEM)+10% fetal bovine serum (FBS)+1% penicillin/streptomycin (P/S). To validate the effect of MIF peptide, C2C12 cells (2×10^3 cells/ml) were placed in a 12 well cell culture dish and attached for 24 hours, and MIF peptide (1000 nM) was treated for 1 day to observe cell proliferation by MTT method. The medium was replaced every 2 days, and the cells were cultured at 37° C.
To validate cell proliferation, the culture medium of the cells was removed, the cells were washed with DMEM, 500 μl of MTT reagent (0.5 mg/ml) dissolved in phosphate buffered saline (PBS) was added to each well, and the cells were left at 37° C. for 1 hour. The reaction solution was removed, and 1000 μl of DMSO was added to each well. Purple formazan crystals were completely dissolved in DMSO, and the absorbance was measured at 540 nm.

C2C12 cells [3] = experiment: mRNA expression of myodifferentiation and sarcopenia factors (real-time PCR); conditions: C2C12 myodifferentiation, peptide-treated vs untreated
Method: After adding 1 ml of TRIzol™ reagent, the cells were crushed using a sonicator. After centrifugation of the crushed sample (12,000 rpm, 10 min, 4° C.), the supernatant was transferred to a new tube, added with 200 μl of chloroform, and left at room temperature for 10 minutes. After 10 minutes, centrifugation (12,000 rpm, 10 min, 4° C.) was performed, yielded a transparent supernatant. Next, 500 μl of isopropanol was added, the mixture was left for 10 minutes, and centrifugation was performed to obtain RNA pellets. After washing by adding 70% ethanol (distilled water treated with ethanol+diethylpyrocarbonate (hereinafter referred to as DEPC)) to the RNA pellets, complete removal and drying were followed. The dried transparent RNA was added with DEPC-treated distilled water and then stored at −80° C. Total RNA volume was measured by nanodrop, and the 18s and 28s bands were detected in 1.2% agarose gel. cDNA was synthesized with 2 μg of total RNA, random hexamer primers, and reverse transcriptase (25° C.: 10 min, 37° C.: 120 min, 85° C.: 5 min).
Real-time PCR (RT-PCR) was performed for detecting gene expression. For observation of real-time gene expression, gene expression was analyzed using the Power SYBR Green PCR Master Mix, which includes fluorescent materials of SYBR green (7500 Real-time PCR system). The PCR primer was designed with Primer 3 software (http://frodo.wi.mit.edu) according to the nucleotide sequence secured from NCBI GenBank. PCR was performed 40 times at 95° C. for 10 minutes, again at 95° C. for 33 seconds, at gene primer temperature (tm) for 33 seconds, and at 72° C. for 33 seconds. Gene expression values were analyzed through the analysis of c(t) values obtained through real-time PCR analysis (fold change 2-^ΔΔCt formula). Setting the gene expression value of the untreated cells to 1, the gene expression value of the treated cells was calculated. In the analysis of gene c(t) values, normalization was conducted with the glyceraldehyde-3-phosphate dehydrogenase (GAPDH).

C2C12 cells [4] = experiment: Scratch experiment, degree of cell recovery; conditions: C2C12, 1000 nM peptide, 1 day in proliferation medium
Method: When the C2C12 cells were 100% grown, cells were scratches on the surface, treated with 1000 nM MIF1 or Ac-MIF1 peptides, and cultured for 1 day, followed by observation for a degree of cell recovery.

C2C12 cells [5] = experiment: Protein expression of myodifferentiation and sarcopenia factors (Western blot, immunocytochemistry); conditions: C2C12 myodifferentiation, peptide-treated vs untreated
Method: The medium of cultured C2C12 cells was removed and washed once with PBS. The washed cells were treated with 4% formaldehyde (Sigma), fixed for 15 minutes, then washed using PBS, added with 0.2% trypton X-100 (Sigma), and left for 5 minutes. After washing again using PBS, adding 1% normal goat serum, and leaving for 30 minutes, the primary antibody (MYOD, myogenin (MYOG):myosin light chain (MYL2); 1:50) was added to carry out a reaction at 4° C. for 14 hours. The antibodies were removed, washing was performed 3 times with PBS for 10 minutes, and then the cells were left with secondary antibody (Alexa Fluor 488 goat anti-Mouse & rabbit SFX kit t) for 1 hour. After 1 hour, the antibodies were removed, washing was performed with PBS for 10 minutes, the nuclei were stained with 4′,6-diamidino-2-phenylindol (DAPI), and the expression of the proteins was observed using fluorescence microscopy.
(1) The medium of cultured C2C12 cells was removed, followed by washing with PBS. After adding LIPA buffer and protease inhibitor to the washed cells, the proteins included in the supernatant were collected after centrifugation for 10 minutes at 12000 rpm. 40 μg of the extracted proteins were subjected to electrophoresis in 8 to 10% acrylamide gel and then transferred to a polyvinylidene fluoride (PVDF) membrane (Milipore). These were blocked with 3% skim milk or bovine serum albumin (BSA) at room temperature for 1 hour. Afterwards, primary antibody diluted in 1% skim milk or BSA (Pax7; 1:500, MYOD; 1:500, MYOG; 1:400, MYL2; 1:1000, MYH; 1:500, MSTN; 1:1000, β-actin; 1:1000, MuRF1; 1:400, and Atrogin; 1:1:400) was added and reacted at 4° C. for over 16 hours. After 16 hours, cells were washed three times with TBST (Tris-buffered saline with Tween 20) and reacted with secondary antibody with horseradish peroxidase (HRP) conjugated at room temperature for 1 hour. It was washed three times with TBST and developed after adding Super Signal West Pico Chemiluminescent Substrate.

Substance: MSTN protein: myostatin protein that inhibits the proliferation and differentiation of myoblasts [reference compound]
- differentiation of cells compared to untreated cells (C2C12 cells [1]; C2C12, MSTN protein in differentiation medium, FIG. 3): reduced
- root canal formation compared to untreated cells (C2C12 cells [1]; C2C12, differentiation medium, 3 days): reduced
- proliferation of cells compared to untreated cells (C2C12 cells [2]; C2C12, MSTN protein in proliferation medium, FIG. 3): reduced

Substance: VDFEAFWDWG [MIF1]
- Atrogin1 mRNA expression (C2C12 cells [3]): decreased
- MSTN mRNA expression (C2C12 cells [3]): decreased
- MYH mRNA expression (C2C12 cells [3]): increased
- scratch recovery degree, increase compared to untreated cells (C2C12 cells [4]): 22%
- fusion index, increase compared to untreated cells (C2C12 cells [1]; C2C12, differentiation medium including peptide, 3 days): 4%
- MSTN protein expression (C2C12 cells [5]): increased
- MYH protein expression (C2C12 cells [5]): increased
- MYL2 protein expression (C2C12 cells [5]): increased
- MYOD protein expression (C2C12 cells [5]): increased
- MYOG protein expression (C2C12 cells [5]): increased
- MuRF1 protein expression (C2C12 cells [5]): decreased
- cell proliferation, increase compared to cells without peptide treatment (C2C12 cells [2]; C2C12, peptide 1000 nM, 1 day, MTT, FIG. 4): 11%
